Here are results for five compounds from patent US5998487A, “Anti-inflammatory and antibacterial benzyl phenol agents and their use in oral compositions” (Colgate-Palmolive Company, priority 1998, dated 1999).

For series [1], the system named is caries. The conditions noted are these: hamsters; Stralfors 1967; cited from earlier work.
Series [2] deals with PGE2 production in Human Embryo Palatal Mesenchyme cells (HEPM, ATCC #1486). The series can be described thus: Inhibition of PGE2 production in IL-1β-stimulated HEPM cells. It is filed as cell-based. As to conditions: for IC50: Homo sapiens, read-out: IC50 Concentration to Inhibit 50% of PGE2. As for the experimental part: Specifically, Human Embryo Palatal Mesenchyme cells (HEPM, ATCC #1486) cells were grown in high glycose Delbeco's Modified Eagles Medium (DMEM, Gibco/BRL-Life Technologies, Grand Island, N.Y.) containing 10% heat inactivated fetal bovine serum (FBS, Gibco/BRL). The cells were grown at 37° C., 100% humidity, and 10% CO2. Prior to analysis, the cells were subcultured into 24 well plates, to form 12 sets of duplicate cultures, and allowed to become 70-90% confluent. On day one of the experiment, the cells were washed three times with serum free media (containing 0.5% bovine serum albumin, BSA), followed by replacement with BSA containing media alone (the negative control) in the first culture set; media and 1.0 ng/mL IL-1β (the positive control, without any inhibitor) in the second culture set; and media, 1.0 ng/mL IL-1β, and a range of from 0.01 μM to 50 μM of 2-t-butyl-4-(4-t-butylbenzyl)-phenol in the third thru twelfth culture sets. Exposure was for 24 hours at which time the media was removed from each well, the media's pH was adjusted to 3.5 with HCl, and the media was analyzed for PGE2 produced using a PerSeptive Diagnostics TiterFluor PGE2 EIA kit, available from PerSeptive Biosystems, Framingham, Mass. 01701.
Prior to determining the PGE2 inhibitory effect of the 2-t-butyl-4-(4-t-butylbenzyl)-phenol compound of the present invention, the results must be normalized with respect to the number of viable cells in each culture well; more or less cells producing correspondingly more or less PGE2. […] Once dissolved, the spectroscopic absorbance of 100 μl of the isopropanol solution from each culture well was determined at 570 nm. A normalization factor, the cell concentration ratio, was calculated for each culture well, by dividing the absorbance of the particular culture well's isopropanol solution by the average absorbance of the unstimulated negative control set's isopropanol solutions. The PGE2 originally determined for each culture well was then normalized by being […] the cell concentration ratio calculated for that particular culture well. […]

Series [3] deals with COX-1 (Ovis aries, UniProt P05979). The series can be described thus: COX-1 inhibition, oxygen utilization assay. It is filed as biochemical. The conditions noted are these: for IC50: oxygen consumption, read-out: IC50 Conc. to Inhibit 50% of COX-1 Activity. An excerpt: (§1) The efficacy of the AAB compounds of the present invention as inhibitors of COX-1 and COX-2 enzymes was shown using the oxygen utilization assay described in Dewhirst, Prostaglandins, 22, 209-222 (1980). Varying concentrations of 2-t-butyl-4-(4-t-butylbenzyl)-phenol, a compound of the present invention were selected that inhibit the enzymatic activity from 20% to about 80%, as compared to a positive control, no inhibitor. These varying concentrations of 2-t-butyl-4-(4-t-butylbenzyl)-phenol were independently added to COX-1 and COX-2 enzymes in a closed system, in which the enzymes were reacted in a reaction requiring molecular oxygen. The degree of inhibition of the COX enzyme activity was measured by the reduction in monitored oxygen consumption as a function of time within the closed system. The COX enzyme IC50, concentration of 2-t-butyl-4-(4-t-butylbenzyl)-phenol found to inhibit 50% of the activity of the COX-1 and COX-2 enzymes is recorded in Table II.
(§2) For comparison, the COX enzyme IC50 assay methodology of Example III was repeated using triclosan, an agent known to inhibit PG by inhibiting the production of its COX-1 and COX-2 precursors.

Series [4] deals with A. viscosus. The series can be described thus: MIC (Minimum Inhibitory Concentration) test. The format is cell-based. The conditions noted are these: for MIC: Actinomyces viscosus, read-out: MIC (Bacterial Minimum Inhibitory Concentration). As for the experimental part: The smaller the MIC, the greater the antibacterial activity of the compound being tested.
Using a 96 well microtiter plate, a 100 μl of trypticase soy broth (TSB) media, available from BBL, Cockeysville, Md. 21030, was placed in each of the 12 columns within the plate. Using a octapette pipettor, the 2-t-butyl-4-(4-t-butylbenzyl)-phenol compound was serially diluted to each of the 12 columns, from 125 ppm in the first well of each column, to 0.061 ppm in the 12th (each column containing 1/2 the concentration of 2-t-butyl-4-(4-t-butylbenzyl)-phenol compound than the previous column). To each of the 12 columns an additional 100 μl of TBS was added containing A. viscosus bacterium, a common oral bacteria, at a concentration optical density of 0.1, at 610 nm. The plate was then sealed and incubated for 24 hours at 37° C.
The procedure of Example IV was simultaneously run with water as a negative control and using a known efficacious antibacterial agent, triclosan, as a comparative and positive control. The MIC determined for the triclosan is also recorded in Table III for comparative purposes.

The target in series [5] is T1, COX-2 (Homo sapiens, UniProt P35354).
T1 sequence (P35354 18-604): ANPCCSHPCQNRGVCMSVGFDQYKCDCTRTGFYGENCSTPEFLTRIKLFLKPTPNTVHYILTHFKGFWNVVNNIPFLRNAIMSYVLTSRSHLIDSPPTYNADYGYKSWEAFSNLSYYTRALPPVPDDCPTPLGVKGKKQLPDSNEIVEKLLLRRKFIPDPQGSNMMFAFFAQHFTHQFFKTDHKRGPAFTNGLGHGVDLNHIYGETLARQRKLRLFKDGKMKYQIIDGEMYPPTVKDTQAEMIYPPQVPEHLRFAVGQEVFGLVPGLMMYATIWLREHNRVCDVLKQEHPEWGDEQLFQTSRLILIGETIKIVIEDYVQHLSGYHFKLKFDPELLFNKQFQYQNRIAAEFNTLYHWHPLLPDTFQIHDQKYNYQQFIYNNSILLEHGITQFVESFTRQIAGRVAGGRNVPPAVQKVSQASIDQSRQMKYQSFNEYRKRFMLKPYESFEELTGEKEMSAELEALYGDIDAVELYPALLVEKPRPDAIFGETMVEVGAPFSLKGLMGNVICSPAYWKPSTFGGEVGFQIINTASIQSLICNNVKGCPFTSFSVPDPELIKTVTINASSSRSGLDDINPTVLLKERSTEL
The series can be described thus: COX-2 inhibition, oxygen utilization assay. The format is biochemical.
From the text: as §1, §2

Series [6] relates to microbial challenge. The conditions noted are these: EP 0 528 468 A1; cited from earlier work.
The subject of series [7] is cyclooxygenase. The conditions noted are these: EP 0 528 468 A1; cited from earlier work.

Converted amounts (≈) assume the structure as drawn. Read-outs that look alike come from different tables or passages of the source.

COX-1, sequence (P05979 25-600): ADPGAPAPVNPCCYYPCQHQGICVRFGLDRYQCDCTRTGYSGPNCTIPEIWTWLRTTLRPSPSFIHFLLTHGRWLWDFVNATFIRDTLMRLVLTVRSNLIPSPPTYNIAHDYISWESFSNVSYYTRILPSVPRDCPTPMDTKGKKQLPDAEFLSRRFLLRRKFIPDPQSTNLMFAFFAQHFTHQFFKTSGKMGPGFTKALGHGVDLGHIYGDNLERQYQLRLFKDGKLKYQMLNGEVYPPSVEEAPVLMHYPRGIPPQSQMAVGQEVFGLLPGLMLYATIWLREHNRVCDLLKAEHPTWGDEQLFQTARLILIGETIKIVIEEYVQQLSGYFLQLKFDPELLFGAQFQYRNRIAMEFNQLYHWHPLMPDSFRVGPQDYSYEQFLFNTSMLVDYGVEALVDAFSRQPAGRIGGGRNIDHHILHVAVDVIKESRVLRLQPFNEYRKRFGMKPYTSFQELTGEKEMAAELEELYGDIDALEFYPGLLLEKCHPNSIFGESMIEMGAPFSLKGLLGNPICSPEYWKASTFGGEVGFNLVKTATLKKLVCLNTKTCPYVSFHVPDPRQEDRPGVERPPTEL

With `O=c1c(O)c(-c2ccc(O)c(O)c2)oc2cc(O)cc(O)c12` [quercetin, pentahydroxyflavone], the adverse weight loss result in series [1] is “without adverse weight loss”.

Take `O=C(O)c1ccc(O)c(O)c1` [protocatechuic acid, 3,4-dihydroxybenzoic acid]: in series [1], the adverse weight loss result is recorded as “without adverse weight loss” and the inhibition of caries result is recorded as “inhibit caries”.

In the case of `Oc1cc(Cl)ccc1Oc1ccc(Cl)cc1Cl` [Triclosan, 2',4,4'-trichloro-2-hydroxy-diphenyl-ether], the IC50 is 7 µM in series [2] (24 h), 43 µM in series [3] and 229 µM in series [5]. Moreover, the MIC in series [4] (24 h) is 3.61 µg/mL (≈ 12.5 µM). Further, in series [6], the “reduction of microbial challenge” value is listed as “reduces microbial challenge”. Moreover, in series [7], the “inhibition of cyclooxygenase activity” value is listed as “inhibits cyclooxygenase activity”.

As for `O=C(O)C=Cc1ccc(O)c(O)c1` [caffeic acid, 3,4-dihydroxycinnamic acid], in series [1], the adverse weight loss result is on record as “without adverse weight loss” and the inhibition of caries result is “inhibit caries”.

Take `CC(C)(C)c1ccc(Cc2ccc(O)c(C(C)(C)C)c2)cc1` [2-t-butyl-4-(4-t-butylbenzyl)-phenol]: the IC50 in series [2] (HEPM cells, 1.0 ng/mL IL-1β, 24 hours, normalized to viable cells (MTT)) turned out to be 3.7 µM; in series [3], 17.4 µM; in series [5] (oxygen consumption, read-out: IC50 Conc. to Inhibit 50% of COX-2 Activity), 100 µM. The “efficacy as PGE2 inhibitor relative to triclosan” value in series [2] (vs triclosan, from Table I) was approximately 2 times. The “efficacy as COX-1 inhibitor relative to triclosan” value in series [3] (vs triclosan, from Table II) is “over 2 times”. Besides, the MIC in series [4] (A. viscosus, TSB, 24 hours, 37° C.) worked out at 0.24 µg/mL (≈ 0.81 µM). For the same compound, the “MIC relative to that of triclosan” value in series [4] (vs triclosan, from Table III) was “about 7%”. Further, the “efficacy as COX-2 inhibitor relative to triclosan” value in series [5] (vs triclosan, from Table II) is “over 2 times”.
